# Source: patent US10375959B2, “Ternary herbicidal combination comprising saflufenacil” (BASF Agro B.V., priority 2015, dated 2019)
# Several values for one entry are separate records, joined by “and”; a condition that tells them apart may be missing. Identical values can stand only once. Like-named read-outs stand apart in the source and are kept apart here.
# How the values were obtained:
# Type in all cases: in vivo
# [1] = system: Abutilon theophrasti; assay: Greenhouse post-emergence herbicidal activity on ABUTH (velvetleaf), 20 DAT; details: for inhibition at 0.5 g/ha: 0.5 g ai/ha
# Description: (§1) The test plants were first grown to a height of 3 to 20 cm, depending on the plant habit, and only then treated (post-emergence treatment). Here, the herbicidal combinations were suspended, emulsified or dissolved in water as distribution medium and afterwards applied by spraying, using finely distributing nozzles.
# (§2) The herbicides A, B and C were used as commercially available formulations and introduced to the spray liquor with the amount of solvent system used for applying the active compound. In the examples, the solvent used was water.
# (§3) The test period extended over 20 days. During this time, the plants were tended, and their response to the treatments with active compounds was evaluated.
# (§4) The evaluation for the damage caused by the chemical compositions was carried out using a scale from 0 to 100%, compared to the untreated control plants. Here, 0 means no damage and 100 means complete destruction of the plants.
# (§5) The plants used in the greenhouse experiments belonged to the following species:
# (§6) The value E, which is to be expected if the activity of the individual compounds is just additive, was calculated using the method of S. R. Colby (1967) “Calculating synergistic and antagonistic responses of herbicide combinations”, Weeds 15, p. 22 ff. For two component mixtures the value E was calculated by the following formula E=X+Y−(X·Y/100)
# (§7) where X=effect in percent using a mixture of herbicides A and B at application rates a and b, respectively; • Y=effect in percent using herbicide C at an application rate c; • E=expected effect (in %) of A+B+C at application rates a+b+c.
# (§8) If the value observed in this manner is higher than the value E calculated according to Colby, a synergistic effect is present.
# (§9) Tables 1 to 41 relate to the herbicidal activities of the binary mixture of herbicides A and B, of herbicide C individually and of their combinations in post-emergence applications assessed 20 days after treatment (20 DAT).
# [2] = system: Avena fatua; assay: Greenhouse post-emergence herbicidal activity on AVEFA (wild oat), 20 DAT
# Description: as §1, §2, §3, §4, §5, §6, §7, §8, §9
# [3] = system: Echinochloa crus-galli; assay: Greenhouse post-emergence herbicidal activity on ECHCG (barnyardgrass), 20 DAT
# Description: as §1, §2, §3, §4, §5, §6, §7, §8, §9
# [4] = system: Amaranthus retroflexus; assay: Greenhouse post-emergence herbicidal activity on AMARE (pig weed), 20 DAT
# Description: as §1, §2, §3, §4, §5, §6, §7, §8, §9
# [5] = system: Digitaria sanguinalis; assay: Greenhouse post-emergence herbicidal activity on DIGSA (large crabgrass), 20 DAT
# Description: as §1, §2, §3, §4, §5, §6, §7, §8, §9
# [6] = system: Setaria viridis; assay: Greenhouse post-emergence herbicidal activity on SETVI (green foxtail), 20 DAT
# Description: as §1, §2, §3, §4, §5, §6, §7, §8, §9
# [7] = system: Brachiaria platyphylla; assay: Greenhouse post-emergence herbicidal activity on BRAPP (broadleaf signalgrass), 20 DAT
# Description: as §1, §2, §3, §4, §5, §6, §7, §8, §9
# [8] = system: Solarium nigrum; assay: Greenhouse post-emergence herbicidal activity on SOLNI (black nightshade), 20 DAT
# Description: as §1, §2
# The test period extended over 20 days. During this time, the plants were tended, and their response to the treatments with active compounds was evaluated. […]
# The value E, which is to be expected if the activity of the individual compounds is just additive, was calculated using the method of S. R. Colby (1967) “Calculating synergistic and antagonistic responses of herbicide combinations”, Weeds 15, p. […] For two component mixtures the value E was calculated by the following formula E=X+Y−(X·Y/100) […]
# as §8, §9
# [9] = system: Brachiaria decumbens; assay: Greenhouse post-emergence herbicidal activity on BRADC (Surinam grass), 20 DAT
# Description: as §1, §2, §3, §4, §5, §6, §7, §8, §9
smiles,measurement,setting,value
CCC(CC)Nc1c([N+](=O)[O-])cc(C)c(C)c1[N+](=O)[O-] [pendimethalin],pest or weed control at 37.5 g/ha,"[1]; Abutilon theophrasti, 480 h, ABUTH, C 37.5 g ai/ha",0%
same,% activity 20 DAT,[2]; C 150.0 g ai/ha,0%
same,% activity 20 DAT,[3]; C 75.0 g ai/ha,0%
same,% activity 20 DAT,[3]; C 150.0 g ai/ha,0%
CCc1cnc(C2=NC(C)(C(C)C)C(=O)N2)c(C(=O)O)c1 (stereo not shown) [imazethapyr],% activity 20 DAT,"[4]; AMARE, C 1.0 g ai/ha",55%
same,% activity 20 DAT,[2]; C 0.5 g ai/ha,0%
same,% activity 20 DAT,"[5]; DIGSA, C 0.5 g ai/ha",15%
same,% activity 20 DAT,"[5]; DIGSA, C 2.0 g ai/ha",20%
C#CCN1C(=O)COc2cc(F)c(N3C(=O)C4=C(CCCC4)C3=O)cc21 [flumioxazin],% activity 20 DAT,[6]; C 0.5 g ai/ha,40%
COCc1cnc(C2=NC(C)(C(C)C)C(=O)N2)c(C(=O)O)c1 (stereo not shown) [imazamox],inhibition at 0.5 g/ha,"[1]; Abutilon theophrasti, 480 h, ABUTH, 20 DAT, Table 38, read-out: % activity 20 DAT, solo C application",0%
same,pest or weed control at 0.5 g/ha,"[1]; Abutilon theophrasti, 480 h, ABUTH, C 0.5 g ai/ha",0%
same,% activity 20 DAT,"[4]; AMARE, C 0.125 g ai/ha",10%
same,inhibition at 0.5 g/ha,"[4]; Amaranthus retroflexus, 480 h, AMARE, 0.5 g ai/ha, 20 DAT, read-out: % activity 20 DAT, solo C application",40%
same,% activity 20 DAT,"[5]; DIGSA, C 1.0 g ai/ha",15%
same,inhibition at 0.5 g/ha,"[5]; Digitaria sanguinalis, 480 h, DIGSA, 0.5 g ai/ha, 20 DAT, read-out: % activity 20 DAT, solo C application",10%
same,% activity 20 DAT,[3]; C 0.5 g ai/ha,0%
same,inhibition at 0.5 g/ha,"[6]; Setaria viridis, 480 h, 0.5 g ai/ha, 20 DAT, read-out: % activity 20 DAT, solo C application",15%
CCOCN(C(=O)CCl)c1c(C)cccc1CC [acetochlor],pest or weed control at 25 g/ha,"[1]; Abutilon theophrasti, 480 h, ABUTH, C 25.0 g ai/ha",25%
same,% activity 20 DAT,"[4]; AMARE, C 12.5 g ai/ha",0%
same,% activity 20 DAT,[2]; C 50.0 g ai/ha,10%
same,% activity 20 DAT,[7]; C 50.0 g ai/ha,5%
same,% activity 20 DAT,[6]; C 50.0 g ai/ha,10%
CCSC(C)CC1CC(=O)C(/C(CC)=N/OC/C=C/Cl)=C(O)C1 (stereo not shown) [clethodim],pest or weed control at 0.75 g/ha,"[1]; Abutilon theophrasti, 480 h, read-out: % activity 20 DAT",5%
same,inhibition at 0.75 g/ha,"[1]; Abutilon theophrasti, 480 h, read-out: % activity 20 DAT, solo C application",5%
same,inhibition at 0.75 g/ha,"[4]; Amaranthus retroflexus, 480 h, read-out: % activity 20 DAT, solo C application",20%
same,% activity 20 DAT,[2]; C 0.75 g ai/ha,20%
same,inhibition at 0.75 g/ha,"[5]; Digitaria sanguinalis, 480 h, read-out: % activity 20 DAT, solo C application",0%
COC[C@H](C)N(C(=O)CCl)c1c(C)csc1C [dimethenamid-P],"% activity 20 DAT, solo C application","[1]; ABUTH, 37.5 g ai/ha, 20 DAT",0%
same,"% activity 20 DAT, solo C application","[4]; AMARE, 37.5 g ai/ha, 20 DAT",0%
same,% activity 20 DAT,"[4]; AMARE, C 18.75 g ai/ha",0%
same,% activity 20 DAT,[2]; C 75.0 g ai/ha,20%
same,% activity 20 DAT,[7]; C 75.0 g ai/ha,5%
same,"% activity 20 DAT, solo C application","[3]; 75 g ai/ha, 20 DAT",80%
COc1c(Cl)ccc(Cl)c1C(=O)O [dicamba],pest or weed control at 4.375 g/ha,"[1]; Abutilon theophrasti, 480 h, ABUTH, C 4.375 g ai/ha",40%
same,% activity 20 DAT,[7]; C 17.5 g ai/ha,40%
CCOc1nc(F)cc2nc(S(=O)(=O)Nc3c(Cl)cccc3Cl)nn12 [diclosulam],"% activity 20 DAT, solo C application","[1]; ABUTH, 0.125 g ai/ha, 20 DAT",10%
same,"% activity 20 DAT, solo C application","[7]; 1.0 g ai/ha, 20 DAT",45%
same,% activity 20 DAT,"[5]; DIGSA, C 0.5 g ai/ha",25%
same,% activity 20 DAT,[3]; C 1.0 g ai/ha,20%
same,% activity 20 DAT,[8]; C 0.125 g ai/ha,0%
Cc1c(C(=O)c2cnn(C)c2O)ccc(S(C)(=O)=O)c1C1=NOCC1 [topramezone],"% activity 20 DAT, solo C application","[1]; ABUTH, 0.25 g ai/ha, 20 DAT",10%
same,% activity 20 DAT,"[1]; ABUTH, C 0.25 g ai/ha",10% and 0%
same,"% activity 20 DAT, solo C application","[4]; AMARE, 0.25 g ai/ha, 20 DAT",40%
same,% activity 20 DAT,"[4]; AMARE, C 0.25 g ai/ha",40%
same,"% activity 20 DAT, solo C application","[2]; 0.25 g ai/ha, 20 DAT",0%
same,% activity 20 DAT,[9]; C 0.25 g ai/ha,0%
same,% activity 20 DAT,[9]; C 0.5 g ai/ha,0%
same,"% activity 20 DAT, solo C application","[3]; 0.25 g ai/ha, 20 DAT",25%
same,% activity 20 DAT,[3]; C 0.25 g ai/ha,25% and 20%
same,"% activity 20 DAT, solo C application","[6]; 0.25 g ai/ha, 20 DAT",0%
same,% activity 20 DAT,[6]; C 0.25 g ai/ha,0%
same,% activity 20 DAT,[6]; C 0.5 g ai/ha,0%
CCNc1nc(Cl)nc(NC(C)C)n1 [atrazine],inhibition at 12.5 g/ha,"[1]; Abutilon theophrasti, 480 h, ABUTH, 12.5 g ai/ha, 20 DAT, read-out: % activity 20 DAT, solo C application",25%
same,% activity 20 DAT,[2]; C 12.5 g ai/ha,0%
same,% activity 20 DAT,[7]; C 12.5 g ai/ha,0%
same,inhibition at 25 g/ha,"[6]; Setaria viridis, 480 h, 25.0 g ai/ha, 20 DAT, read-out: % activity 20 DAT, solo C application",25%
"CCCCC(CC)COC(=O)COc1ccc(Cl)cc1Cl (stereo not shown) [2,4-D LV ester, 2-ethylhexyl ester of 2,4-D]",% activity 20 DAT,"[1]; ABUTH, C 6.25 g ai/ha",20%
same,% activity 20 DAT,[7]; C 6.25 g ai/ha,20%
same,% activity 20 DAT,"[5]; DIGSA, C 6.25 g ai/ha",0%
CS(=O)(=O)NC(=O)c1cc(Oc2ccc(C(F)(F)F)cc2Cl)ccc1[N+](=O)[O-] [fomesafen],inhibition at 3 g/ha,"[1]; Abutilon theophrasti, 480 h, ABUTH, 3.0 g ai/ha, 20 DAT, read-out: % activity 20 DAT, solo C application",20%
same,pest or weed control at […],"[1]; Abutilon theophrasti, 480 h, ABUTH, C 1.5 g ai/ha",5%
same,inhibition at 3 g/ha,"[4]; Amaranthus retroflexus, 480 h, AMARE, 3.0 g ai/ha, 20 DAT, read-out: % activity 20 DAT, solo C application",65%
same,% activity 20 DAT,[2]; C 1.5 g ai/ha,20%
same,% activity 20 DAT,[9]; C 3.0 g ai/ha,30%
same,inhibition at […],"[5]; Digitaria sanguinalis, 480 h, DIGSA, 1.5 g ai/ha, 20 DAT, read-out: % activity 20 DAT, solo C application",20%
same,inhibition at […],"[3]; Echinochloa crus-galli, 480 h, 1.5 g ai/ha, 20 DAT, read-out: % activity 20 DAT, solo C application",20%
CS(=O)(=O)c1ccc(C(=O)C2C(=O)CCCC2=O)c([N+](=O)[O-])c1 [mesotrione],inhibition at 0.625 g/ha,"[1]; Abutilon theophrasti, 480 h, ABUTH, 0.625 g ai/ha, 20 DAT, read-out: % activity 20 DAT, solo C application",75%
same,% activity,"[4]; AMARE, 20 DAT, C 0.625",0%
same,% activity,"[7]; 20 DAT, C 5.0",35%
same,inhibition at 5 g/ha,"[7]; Urochloa platyphylla, 480 h, 5.0 g ai/ha, 20 DAT, read-out: % activity 20 DAT, solo C application",40%
same,% activity 20 DAT,"[5]; DIGSA, C 2.5 g ai/ha",80%
CS(=O)(=O)c1cc(C(F)(F)F)ccc1C(=O)c1cnoc1C1CC1 [isoxaflutole],inhibition at 0.5 g/ha,"[1]; Abutilon theophrasti, 480 h, ABUTH, 20 DAT, Table 36, read-out: % activity 20 DAT, solo C application",50%
same,pest or weed control at 1 g/ha,"[1]; Abutilon theophrasti, 480 h, ABUTH, C 1.0 g ai/ha",85%
same,% activity 20 DAT,[7]; C 2.0 g ai/ha,40%
same,% activity 20 DAT,"[5]; DIGSA, C 1.0 g ai/ha",25%
same,% activity 20 DAT,[8]; C 0.5 g ai/ha,70%
